Peptide text beside a SMILES is read from it.

This assay deals with T1, ASIC1a F302A (Homo sapiens, UniProt P78348, F302A).
T1 construct: expressed in transfected cells; host or cells: Xenopus laevis oocytes injected with cRNA
T1 sequence (P78348 1-528 F302A): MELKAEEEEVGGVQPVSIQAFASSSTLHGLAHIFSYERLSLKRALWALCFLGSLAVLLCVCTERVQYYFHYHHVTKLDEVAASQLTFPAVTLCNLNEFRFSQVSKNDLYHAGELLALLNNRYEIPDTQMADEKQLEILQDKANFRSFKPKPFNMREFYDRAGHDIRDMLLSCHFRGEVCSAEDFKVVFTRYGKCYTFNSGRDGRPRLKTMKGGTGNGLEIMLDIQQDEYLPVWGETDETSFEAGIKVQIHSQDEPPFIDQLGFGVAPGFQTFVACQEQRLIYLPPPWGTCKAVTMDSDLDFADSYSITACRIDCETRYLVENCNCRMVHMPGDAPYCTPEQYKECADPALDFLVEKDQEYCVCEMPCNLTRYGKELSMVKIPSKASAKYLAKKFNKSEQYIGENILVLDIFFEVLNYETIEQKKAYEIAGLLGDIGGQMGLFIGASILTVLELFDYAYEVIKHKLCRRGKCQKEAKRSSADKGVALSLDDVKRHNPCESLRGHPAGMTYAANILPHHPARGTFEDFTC
The assay is described as follows: Isust/Ipeak, TEVC in Xenopus oocytes. In kind it is cell-based. The following applies: pH5, n = 8–10, mean ± SEM, read-out: EC50 of FRRFa-mediated sustained current induction. The source says:
To scan the pocket and predicted entrance area with mutagenesis, we chose the residues with a potential to form hydrophobic (Ile312, Val187), aromatic (Phe 257, Phe301, Phe302) or electrostatic (Glu254, Asp303, Ser199, Asp253, Glu315) interactions with the peptide. For this analysis, we used mutation to Ala, and complemented the scan with mutation to Cys and subsequent chemical modification only for a selected residue. […] Phe302 is part of a loop connecting palm and thumb domains in the close neighbourhood of the thumb base. The observed increased Isust/Ipeak ratio of F302A (Fig. 4b,e) could simply be due to a better accessibility of the cavity of the putative RFa binding site in the thumb base, because Phe302 has a larger side chain than has Ala to which it was mutated. To test this hypothesis, we mutated Phe302 to Cys and exposed the mutant to the sulfhydryl reagent trimethylammonium-methyl methanethiosulfonate ([…]; 1 mM during 3 min) before the exposure to FRRFa. […]
Electrophysiological measurements were performed 1–2 days after cRNA injection. Ion currents were recorded using two-electrode voltage-clamp at a holding potential of −60 mV with a Dagan TEV-200 amplifier (Minneapolis, MN). […] The amplitude of the sustained current was measured in the last two seconds of the pH5 perfusion. […]

Consider `N=C(N)NCCC[C@H](NC(=O)[C@H](CCCNC(=N)N)NC(=O)[C@@H](N)Cc1ccccc1)C(=O)N[C@@H](Cc1ccccc1)C(N)=O` [FRRFa, Phe-Arg-Arg-Phe-amide] (H-FRRF-NH2), for which the EC50 (commonly the midpoint of the concentration-response curve) came to 11 ± 2 µM.

For the origin of these results see article PMC6385203, “Mutations in the palm domain disrupt modulation of acid-sensing ion channel 1a currents by neuropeptides” (Scientific Reports, 2019).
